Measured values published in PubChem BioAssay (NCI).
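How tested: cells in 96-well plates exposed to compound for 48 hours at five concentrations. Abbreviation: GI50, concentration required for 50% inhibition of growth. The concentration for full growth arrest is given as TGI.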

Key:
Test in all cases: inhibition of tumour cell growth, NCI panel, 48 h
SF-268 CNS = test system: SF-268 CNS
HS 578T breast = test system: HS 578T breast
SR leukemia = test system: SR leukemia
M14 melanoma = test system: M14 melanoma
BT-549 breast = test system: BT-549 breast
OVCAR-4 ovarian = test system: OVCAR-4 ovarian
UACC-257 melanoma = test system: UACC-257 melanoma
SF-295 CNS = test system: SF-295 CNS
MCF7 breast = test system: MCF7 breast
OVCAR-3 ovarian = test system: OVCAR-3 ovarian
HL-60(TB) leukemia = test system: HL-60(TB) leukemia
OVCAR-8 ovarian = test system: OVCAR-8 ovarian
HCC-2998 colon = test system: HCC-2998 colon
U251 CNS = test system: U251 CNS
HT29 colon = test system: HT29 colon
UACC-62 melanoma = test system: UACC-62 melanoma
DU-145 prostate = test system: DU-145 prostate
SK-MEL-5 melanoma = test system: SK-MEL-5 melanoma
RXF 393 renal = test system: RXF 393 renal
NCI-H23 lung = test system: NCI-H23 lung
SF-539 CNS = test system: SF-539 CNS
IGROV1 ovarian = test system: IGROV1 ovarian
SK-MEL-28 melanoma = test system: SK-MEL-28 melanoma
HCT-15 colon = test system: HCT-15 colon
SNB-75 CNS = test system: SNB-75 CNS
SW-620 colon = test system: SW-620 colon
SN12C renal = test system: SN12C renal
COLO 205 colon = test system: COLO 205 colon
HCT-116 colon = test system: HCT-116 colon
EKVX NSCLC = test system: EKVX NSCLC
K-562 leukemia = test system: K-562 leukemia
MDA-MB-231 breast = test system: MDA-MB-231 breast
LOX IMVI melanoma = test system: LOX IMVI melanoma
MOLT-4 leukemia = test system: MOLT-4 leukemia
MDA-MB-435 = test system: MDA-MB-435
PC-3 prostate = test system: PC-3 prostate
RPMI-8226 leukemia = test system: RPMI-8226 leukemia
T-47D breast = test system: T-47D breast
ACHN renal = test system: ACHN renal
TK-10 renal = test system: TK-10 renal
A549 NSCLC = test system: A549 NSCLC
A498 renal = test system: A498 renal
MALME-3M melanoma = test system: MALME-3M melanoma
OVCAR-5 ovarian = test system: OVCAR-5 ovarian
UO-31 renal = test system: UO-31 renal
SK-OV-3 ovarian = test system: SK-OV-3 ovarian
CCRF-CEM leukemia = test system: CCRF-CEM leukemia
SNB-19 CNS = test system: SNB-19 CNS
HOP-92 NSCLC = test system: HOP-92 NSCLC
NCI-H460 lung = test system: NCI-H460 lung
HOP-62 NSCLC = test system: HOP-62 NSCLC
CAKI-1 renal = test system: CAKI-1 renal
SK-MEL-2 melanoma = test system: SK-MEL-2 melanoma
NCI-H226 lung = test system: NCI-H226 lung
NCI/ADR-RES ovarian = test system: NCI/ADR-RES ovarian
NCI-H522 lung = test system: NCI-H522 lung
KM12 colon = test system: KM12 colon
786-0 renal = test system: 786-0 renal
MDA-N = test system: MDA-N

Cc1c(C#N)cccc1[C@@H](C)Nc1nnc(C)c2cnc(N3CCOCC3)cc12
GI50 (SF-268 CNS): 14.1 µM | TGI (SF-268 CNS): > 100 µM | GI50 (HS 578T breast): 12.2 µM | TGI (HS 578T breast): 66.6 µM | GI50 (SR leukemia): 10.7 µM | TGI (SR leukemia): 92.1 µM | GI50 (M14 melanoma): 27 µM | TGI (M14 melanoma): 90.4 µM | GI50 (BT-549 breast): 13.1 µM | TGI (BT-549 breast): 48.2 µM | GI50 (OVCAR-4 ovarian): 13.9 µM | TGI (OVCAR-4 ovarian): 61.8 µM | GI50 (UACC-257 melanoma): 26.4 µM | TGI (UACC-257 melanoma): 94.5 µM | GI50 (SF-295 CNS): 21.9 µM | TGI (SF-295 CNS): > 100 µM | GI50 (MCF7 breast): 21.4 µM | TGI (MCF7 breast): 72.4 µM | GI50 (OVCAR-3 ovarian): 14.5 µM | TGI (OVCAR-3 ovarian): 66.1 µM | GI50 (HL-60(TB) leukemia): 22.8 µM | TGI (HL-60(TB) leukemia): 63.7 µM | GI50 (OVCAR-8 ovarian): 38.5 µM | TGI (OVCAR-8 ovarian): > 100 µM | GI50 (HCC-2998 colon): 53.9 µM | TGI (HCC-2998 colon): > 100 µM | GI50 (U251 CNS): 29.8 µM | TGI (U251 CNS): > 100 µM | GI50 (HT29 colon): 35.2 µM | TGI (HT29 colon): > 100 µM | GI50 (UACC-62 melanoma): 30.5 µM | TGI (UACC-62 melanoma): > 100 µM | GI50 (DU-145 prostate): 27.7 µM | TGI (DU-145 prostate): > 100 µM | GI50 (SK-MEL-5 melanoma): 10.1 µM | TGI (SK-MEL-5 melanoma): 21.9 µM | GI50 (RXF 393 renal): 11.3 µM | TGI (RXF 393 renal): > 100 µM | GI50 (NCI-H23 lung): 15.3 µM | TGI (NCI-H23 lung): > 100 µM | GI50 (SF-539 CNS): 43.1 µM | TGI (SF-539 CNS): > 100 µM | GI50 (IGROV1 ovarian): 24 µM | TGI (IGROV1 ovarian): > 100 µM | GI50 (SK-MEL-28 melanoma): 28.3 µM | TGI (SK-MEL-28 melanoma): > 100 µM | GI50 (HCT-15 colon): 31.4 µM | TGI (HCT-15 colon): > 100 µM | GI50 (SNB-75 CNS): 17.7 µM | TGI (SNB-75 CNS): > 100 µM | GI50 (SW-620 colon): 18.9 µM | TGI (SW-620 colon): > 100 µM | GI50 (SN12C renal): 17.9 µM | TGI (SN12C renal): > 100 µM | GI50 (COLO 205 colon): 22.4 µM | TGI (COLO 205 colon): 60.8 µM | GI50 (HCT-116 colon): 32.7 µM | TGI (HCT-116 colon): > 100 µM | GI50 (EKVX NSCLC): 18.3 µM | TGI (EKVX NSCLC): > 100 µM | GI50 (K-562 leukemia): 0.367 µM | TGI (K-562 leukemia): > 100 µM | GI50 (MDA-MB-231 breast): 26.9 µM | TGI (MDA-MB-231 breast): > 100 µM | GI50 (LOX IMVI melanoma): 27.5 µM | TGI (LOX IMVI melanoma): > 100 µM | GI50 (MOLT-4 leukemia): 28.3 µM | TGI (MOLT-4 leukemia): 90.6 µM | GI50 (MDA-MB-435): 18.3 µM | TGI (MDA-MB-435): 49.1 µM | GI50 (PC-3 prostate): 27.8 µM | TGI (PC-3 prostate): > 100 µM | GI50 (RPMI-8226 leukemia): 25.8 µM | TGI (RPMI-8226 leukemia): > 100 µM | GI50 (T-47D breast): 18.5 µM | TGI (T-47D breast): 81.3 µM | GI50 (ACHN renal): 21.4 µM | TGI (ACHN renal): > 100 µM | GI50 (TK-10 renal): 14.2 µM | TGI (TK-10 renal): > 100 µM | GI50 (A549 NSCLC): 36.2 µM | TGI (A549 NSCLC): > 100 µM | GI50 (A498 renal): 2.72 µM | TGI (A498 renal): > 100 µM | GI50 (MALME-3M melanoma): 21.4 µM | TGI (MALME-3M melanoma): 58.5 µM | GI50 (OVCAR-5 ovarian): 42.2 µM | TGI (OVCAR-5 ovarian): > 100 µM | GI50 (UO-31 renal): 15.1 µM | TGI (UO-31 renal): > 100 µM | GI50 (SK-OV-3 ovarian): 31.3 µM | TGI (SK-OV-3 ovarian): > 100 µM | GI50 (CCRF-CEM leukemia): 39.2 µM | TGI (CCRF-CEM leukemia): > 100 µM | GI50 (SNB-19 CNS): 25.3 µM | TGI (SNB-19 CNS): > 100 µM | GI50 (HOP-92 NSCLC): 0.175 µM | TGI (HOP-92 NSCLC): 13.1 µM | GI50 (NCI-H460 lung): 27.7 µM | TGI (NCI-H460 lung): > 100 µM | GI50 (HOP-62 NSCLC): 43.4 µM | TGI (HOP-62 NSCLC): > 100 µM | GI50 (CAKI-1 renal): 0.7 µM | TGI (CAKI-1 renal): > 100 µM | GI50 (SK-MEL-2 melanoma): 21.1 µM | TGI (SK-MEL-2 melanoma): 64.6 µM | GI50 (NCI-H226 lung): 23.2 µM | TGI (NCI-H226 lung): > 100 µM | GI50 (NCI/ADR-RES ovarian): 35.5 µM | TGI (NCI/ADR-RES ovarian): > 100 µM | GI50 (NCI-H522 lung): 17.5 µM | TGI (NCI-H522 lung): > 100 µM | GI50 (KM12 colon): 6.61 µM | TGI (KM12 colon): > 100 µM | GI50 (786-0 renal): 13.7 µM | TGI (786-0 renal): > 100 µM

COC(NC(=O)Nc1ccccc1C)(C(F)(F)F)C(F)(F)F
TGI (SF-268 CNS): > 100 µM | TGI (HS 578T breast): > 100 µM | TGI (SR leukemia): > 100 µM | TGI (M14 melanoma): > 100 µM | TGI (BT-549 breast): > 100 µM | TGI (OVCAR-4 ovarian): > 100 µM | TGI (SF-295 CNS): > 100 µM | TGI (MCF7 breast): > 100 µM | TGI (OVCAR-3 ovarian): > 100 µM | TGI (HL-60(TB) leukemia): > 100 µM | TGI (OVCAR-8 ovarian): > 100 µM | TGI (HCC-2998 colon): > 100 µM | TGI (U251 CNS): > 100 µM | TGI (HT29 colon): > 100 µM | TGI (UACC-62 melanoma): > 100 µM | TGI (DU-145 prostate): > 100 µM | TGI (SK-MEL-5 melanoma): > 100 µM | TGI (RXF 393 renal): > 100 µM | TGI (NCI-H23 lung): > 100 µM | TGI (SF-539 CNS): > 100 µM | TGI (IGROV1 ovarian): > 100 µM | TGI (SK-MEL-28 melanoma): > 100 µM | TGI (SNB-75 CNS): > 100 µM | TGI (SW-620 colon): > 100 µM | TGI (SN12C renal): > 100 µM | TGI (COLO 205 colon): > 100 µM | TGI (HCT-116 colon): > 100 µM | TGI (K-562 leukemia): > 100 µM | TGI (LOX IMVI melanoma): > 100 µM | TGI (MOLT-4 leukemia): > 100 µM | TGI (MDA-MB-435): > 100 µM | TGI (PC-3 prostate): > 100 µM | TGI (RPMI-8226 leukemia): > 100 µM | TGI (T-47D breast): > 100 µM | TGI (ACHN renal): > 100 µM | TGI (TK-10 renal): > 100 µM | TGI (A549 NSCLC): > 100 µM | TGI (MDA-N): > 100 µM | TGI (A498 renal): > 100 µM | TGI (OVCAR-5 ovarian): > 100 µM | TGI (UO-31 renal): > 100 µM | TGI (SK-OV-3 ovarian): > 100 µM | TGI (CCRF-CEM leukemia): > 100 µM | TGI (SNB-19 CNS): > 100 µM | TGI (HOP-92 NSCLC): > 100 µM | TGI (NCI-H460 lung): > 100 µM | TGI (HOP-62 NSCLC): > 100 µM | TGI (NCI-H226 lung): > 100 µM | TGI (NCI/ADR-RES ovarian): > 100 µM | TGI (NCI-H522 lung): > 100 µM | TGI (KM12 colon): > 100 µM | TGI (786-0 renal): > 100 µM
